According to patent US20250228864A1, “THERAPIES FOR THE TREATMENT OF INFLAMMATORY BOWEL DISEASE” (Gilead Sciences, Inc., priority 2023, published 2025):

Target: T1, α4β7 receptors on β7+CD4+CD45RO+ memory T cells (Homo sapiens, UniProt P13612+P26010)
T1 construct: endogenous in cells
T1 sequence (P13612 34-1032): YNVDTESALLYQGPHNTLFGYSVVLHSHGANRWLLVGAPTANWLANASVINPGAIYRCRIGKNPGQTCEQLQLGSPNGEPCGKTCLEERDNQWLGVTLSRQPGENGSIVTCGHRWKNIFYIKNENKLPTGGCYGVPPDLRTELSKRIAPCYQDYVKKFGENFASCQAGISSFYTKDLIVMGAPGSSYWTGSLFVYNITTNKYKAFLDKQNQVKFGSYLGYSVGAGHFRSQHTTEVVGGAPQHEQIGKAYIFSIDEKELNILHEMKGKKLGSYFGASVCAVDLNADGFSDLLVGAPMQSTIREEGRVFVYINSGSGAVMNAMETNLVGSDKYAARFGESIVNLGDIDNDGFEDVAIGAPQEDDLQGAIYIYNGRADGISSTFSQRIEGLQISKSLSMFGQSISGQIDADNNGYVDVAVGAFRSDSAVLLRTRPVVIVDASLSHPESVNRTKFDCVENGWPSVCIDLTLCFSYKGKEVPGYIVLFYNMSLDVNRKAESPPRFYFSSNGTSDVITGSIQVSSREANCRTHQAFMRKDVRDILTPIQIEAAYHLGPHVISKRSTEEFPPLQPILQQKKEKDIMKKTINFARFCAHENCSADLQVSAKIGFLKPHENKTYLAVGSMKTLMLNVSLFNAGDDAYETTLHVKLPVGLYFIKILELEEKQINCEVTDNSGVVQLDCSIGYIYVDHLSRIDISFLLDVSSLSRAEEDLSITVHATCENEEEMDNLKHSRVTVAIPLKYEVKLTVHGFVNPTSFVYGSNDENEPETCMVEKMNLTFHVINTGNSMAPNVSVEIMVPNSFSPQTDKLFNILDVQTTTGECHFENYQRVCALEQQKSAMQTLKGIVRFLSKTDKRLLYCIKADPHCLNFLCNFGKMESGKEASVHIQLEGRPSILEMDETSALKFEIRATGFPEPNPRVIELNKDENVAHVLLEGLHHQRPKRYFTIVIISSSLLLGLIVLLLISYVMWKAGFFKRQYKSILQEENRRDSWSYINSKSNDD
T1 sequence (P26010 20-798): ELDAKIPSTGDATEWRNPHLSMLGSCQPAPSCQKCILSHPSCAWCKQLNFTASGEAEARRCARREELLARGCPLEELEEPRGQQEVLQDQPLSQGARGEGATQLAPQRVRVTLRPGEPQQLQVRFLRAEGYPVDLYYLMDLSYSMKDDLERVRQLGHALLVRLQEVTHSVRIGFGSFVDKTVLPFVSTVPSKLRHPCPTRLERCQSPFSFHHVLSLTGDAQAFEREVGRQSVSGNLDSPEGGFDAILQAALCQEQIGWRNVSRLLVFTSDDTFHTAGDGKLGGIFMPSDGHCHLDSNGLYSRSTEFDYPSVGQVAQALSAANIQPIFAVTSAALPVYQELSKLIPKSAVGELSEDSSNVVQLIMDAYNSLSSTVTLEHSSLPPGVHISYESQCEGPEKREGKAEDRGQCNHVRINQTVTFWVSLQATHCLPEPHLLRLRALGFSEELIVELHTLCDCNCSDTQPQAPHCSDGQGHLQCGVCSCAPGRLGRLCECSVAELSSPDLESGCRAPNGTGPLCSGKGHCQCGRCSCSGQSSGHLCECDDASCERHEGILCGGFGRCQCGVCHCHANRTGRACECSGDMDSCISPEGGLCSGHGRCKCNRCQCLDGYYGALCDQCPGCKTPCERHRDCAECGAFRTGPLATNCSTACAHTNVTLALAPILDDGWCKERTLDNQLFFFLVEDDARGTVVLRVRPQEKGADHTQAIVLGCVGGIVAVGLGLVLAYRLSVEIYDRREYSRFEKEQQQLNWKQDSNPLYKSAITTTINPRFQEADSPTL
Assay: Whole blood α4β7 receptor occupancy (RO) assay by flow cytometry in SAD and MAD cohorts
Format: in vivo
Conditions: for time post last dose (Day 14) until which α4β7 % RO≥95% was sustained: 100% of participants
Protocol: Formula (III) is a prodrug of Formula (I) and undergoes a rapid conversion to its active metabolite (Formula (I)) when administered to a human. The pharmacodynamics (PD) of the active metabolite of Formula (III) were analyzed in healthy volunteers by measuring the metabolites receptor occupancy (RO) on α4β7 receptors in whole blood to inform Formula (III) dose selection and schedule.
A whole blood RO assay was developed and fit-for-purpose-validated that measures free α4β7 receptors on […] memory T cells in fresh whole blood by flow cytometry. The β7+CD4+CD45RO+ memory T-cells were identified using a staining panel comprised of fluorescently labelled anti-CD3, -CD4, -CD8, -CD45RO, and -β7 antibodies (Biolegend) (Table 14) as soon as possible after blood collection. Biotinylated human MAdCAM-1 protein, the natural ligand for α4β7, is mixed with streptavidin PE dextramer (Immudex) (MDX) and added to the whole blood in the presence of the divalent cation manganese (as MnCl2). MDX and the metabolite compete for binding to the α4β7 integrin receptor. Specimen data are acquired immediately on a BD LSRFortessa X-20 Cell Analyzer flow cytometer using a α4β7 RO cell acquisition template and application settings. The gating strategy is as follows: lymphocytes are gated based on size (FSC-A) and complexity (SSC-A). Doublets are removed using FSC-A/FSC-H. CD3+ lymphocytes are further differentiated into CD4+ and CD8+ T cells. CD4+CD45RO+ positive T cells are gated on β7 integrin and MDX positivity. The fluorescent intensities of PE-MDX β7+CD4+CD45RO+ memory T cells in pre-dose and post-dose whole blood are used to calculate the % RO post-dose. The lower level of quantification (LLOQ) of the assay was estimated to be ˜40% for a single measurement; similarly, the a4b7 RO assay was fit-for purpose validated to precisely quantify % RO up to 95% RO. Actual measured values <40% RO and ≥95% RO are shown but represent best estimates.
Whole blood was collected pre- and post-Formula (III) or placebo to match (PTM) administration and percent α4β7 RO was calculated for all postbaseline time points in the SAD and MAD cohorts of the study. α4β7% RO was evaluated in all participants in Part A (SAD, Formula (III) 20 mg, 60 mg, 200 mg, 500 mg, and 1000 mg administered in liquid filled capsules under fasting conditions), and in Part B (MAD, Formula (III) 20 mg, 80 mg, 200 mg, 500 mg in liquid filled capsules under non-fasting conditions and Formula (III) 200 mg in tablet formulation under fasting conditions). In total, 2,506 samples collected at 35 different time-points from 109 unique participants were analyzed for α4β7% RO.

time until which full target engagement could possibly be achieved (200 mg capsule nonfasting, after last dose): approximately 48 h
α4β7 % RO 72 h postdose, average (200 mg capsule nonfasting, after last dose Day 14): 90.1%
α4β7 % RO at 24 h post last dose on Day 14 (200 mg capsule nonfasting, all participants): ≥ 95%
time post last dose (Day 14) until which α4β7 % RO≥95% was sustained (200 mg tablet fasting): 72 h
time post last dose (Day 14) until which α4β7 % RO≥95% was sustained (500 mg capsule nonfasting): 96 h
α4β7 % RO (MAD 20 mg QD capsule nonfasting, Day 1, 3 h postdose): 99.8%
α4β7 % RO (MAD 20 mg QD capsule nonfasting, Day 1, 24 h postdose): 37.8%
α4β7 % RO (MAD 20 mg QD capsule nonfasting, Day 14, 24 h postdose): 69.3%
α4β7 % RO (MAD 20 mg QD capsule nonfasting, Day 14, predose): 70.8%
change of α4β7 % RO post multiple once daily doses (MAD 20 mg, Day 1 to Day 14): accumulation
α4β7 % RO (MAD 80 mg QD capsule nonfasting, Day 1, 3 h postdose): 99.9%
α4β7 % RO (MAD 80 mg QD capsule nonfasting, Day 1, 24 h postdose): 98.1%
α4β7 % RO (MAD 80 mg QD capsule nonfasting, Day 14, 24 h postdose): 99.4%
α4β7 % RO (MAD 80 mg QD capsule nonfasting, Day 14, predose): 99.3%
target engagement of α4β7 at 24 h on Day 1 (MAD 80 mg nonfasting): achieved full target engagement
α4β7 % RO (MAD 200 mg QD capsule nonfasting, Day 1, 24 h postdose): 99.8%
α4β7 % RO (MAD 200 mg QD capsule nonfasting, Day 14, 24 h postdose): 99.8%
α4β7 % RO (MAD 200 mg QD capsule nonfasting, Day 14, predose): 99.9%
α4β7 % RO (MAD 200 mg QD tablet fasting, Day 1, 3 h postdose): 99.9%
α4β7 % RO (MAD 200 mg QD tablet fasting, Day 1, 24 h postdose): 99.8%
α4β7 % RO (MAD 200 mg QD tablet fasting, Day 14, 24 h postdose): 99.9%
α4β7 % RO (MAD 200 mg QD tablet fasting, Day 14, predose): 100%
α4β7 % RO (MAD 500 mg QD capsule nonfasting, Day 1, 3 h postdose): 99.9%
α4β7 % RO (MAD 500 mg QD capsule nonfasting, Day 1, 24 h postdose): 99.9%
α4β7 % RO (MAD 500 mg QD capsule nonfasting, Day 14, 24 h postdose): 99.9%
α4β7 % RO (MAD 500 mg QD capsule nonfasting, Day 14, predose): 99.9%
α4β7 % RO 24 h post the last once daily dose on Day 14 (MAD all doses ≥80 mg, in 100% of participants): ≥ 95%
α4β7 % RO (SAD 20 mg liquid-filled capsule fasting, Day 1, 3 h postdose): 100%
α4β7 % RO (SAD 20 mg liquid-filled capsule fasting, Day 1, 24 h postdose): 35.9%
α4β7 % RO (SAD 60 mg liquid-filled capsule fasting, Day 1, 3 h postdose): 100%
α4β7 % RO (SAD 60 mg liquid-filled capsule fasting, Day 1, 24 h postdose): 63.4%
α4β7 % RO (SAD 200 mg liquid-filled capsule fasting, Day 1, 3 h postdose): 99.9%
α4β7 % RO (SAD 200 mg liquid-filled capsule fasting, Day 1, 24 h postdose): 99.7%
α4β7 % RO (SAD 500 mg liquid-filled capsule fasting, Day 1, 3 h postdose): 99.9%
α4β7 % RO (SAD 500 mg liquid-filled capsule fasting, Day 1, 24 h postdose): 99.8%
α4β7 % RO (SAD 1000 mg liquid-filled capsule fasting, Day 1, 3 h postdose): 99.6%
α4β7 % RO (SAD 1000 mg liquid-filled capsule fasting, Day 1, 24 h postdose): 99.8%
α4β7 % RO (full target engagement) (SAD fasting, 3 h postdose, all doses tested): ≥ 95%
subjects with full target engagement (% RO≥95) sustained 24 h postdose (SAD fasting, doses ≥200 mg): 100%
Compound: CCOC(=O)[C@H](Cc1ccc(-n2c(=O)c3ccncc3n(C)c2=O)c2ncccc12)NC(=O)c1c(C)cc(N2CCOC[C@@H]2C(F)(F)F)cc1F (atropisomer, axis not shown) [Formula (III)]
